Read-outs that look alike come from different tables or passages of the source.
Experiments:
S. aureus RN450 = assay: In Vitro Anti-Bacterial Activity Assay (MIC), gram positive; assay type: cell-based; conditions: Staphylococcus aureus, RN450, 18 h
E. coli mL308 225 = assay: In Vitro Anti-Bacterial Activity Assay (MIC), gram negative; assay type: cell-based; conditions: Escherichia coli, ML308225, 18 h
[1] = MIC class, Table 3, read-out: Antibiotic Activity Gram +
[2] = MIC class, Table 3, read-out: Antibiotic Activity Gram −
[3] = gram positive bacteria, read-out: Antibiotic Activity Gram + (MIC)
[4] = gram negative bacteria, read-out: Antibiotic Activity Gram − (MIC)
[5] = MIC class, Table 3 (Continued), read-out: Gram+ activity
[6] = MIC class, Table 3 (Continued), read-out: Gram− activity

Compound | MIC (S. aureus RN450; [1]) [µg/mL] | MIC (E. coli mL308 225; [2]) [µg/mL] | MIC (S. aureus RN450; [3]) [µg/mL] | MIC (E. coli mL308 225; [4]) [µg/mL] | further results
CN(C)c1cc(NC(=O)Nc2ccc(F)c([N+](=O)[O-])c2)c(O)c2c1C[C@H]1C[C@H]3[C@H](N(C)C)C(O)=C(C(N)=O)C(=O)[C@@]3(O)C(O)=C1C2=O [DB] | < 4 | > 4 |  |  | 
CCCNCc1ccc(OC)c(-c2ccc(O)c3c2C[C@H]2C[C@H]4C(N(C)C)C(O)=C(C(N)=O)C(=O)[C@@]4(O)C(O)=C2C3=O)c1 (some centres unmarked) [EF] | < 4 | < 4 |  |  | 
CN(C)[C@@H]1C(O)=C(C(N)=O)C(=O)[C@@]2(O)C(O)=C3C(=O)c4c(O)ccc(/C=C/c5ccc(C(F)(F)F)cc5)c4C[C@H]3C[C@@H]12 |  |  | < 4 | > 4 | 
COCc1cncc(-c2ccc(O)c3c2C[C@H]2C[C@H]4[C@H](N(C)C)C(O)=C(C(N)=O)C(=O)[C@@]4(O)C(O)=C2C3=O)c1 |  |  | < 4 | < 4 | 
CN(C)CC#Cc1cc(C(C)(C)C)c(O)c2c1C[C@H]1C[C@H]3[C@H](N(C)C)C(O)=C(C(N)=O)C(=O)[C@@]3(O)C(O)=C1C2=O [GD] | < 4 | > 4 |  |  | 
CN(C)[C@@H]1C(O)=C(C(N)=O)C(=O)[C@@]2(O)C(O)=C3C(=O)c4c(O)ccc(CCCNS(C)(=O)=O)c4C[C@H]3C[C@@H]12 [CQ] | < 4 | > 4 |  |  | 
CCN(CC)c1cc(CN2CCC(F)CC2)c(O)c2c1C[C@H]1C[C@H]3[C@H](N(C)C)C(O)=C(C(N)=O)C(=O)[C@@]3(O)C(O)=C1C2=O |  |  | < 4 | < 4 | 
CN(C)[C@@H]1C(O)=C(C(N)=O)C(=O)[C@@]2(O)C(O)=C3C(=O)c4c(O)ccc(-c5cc6ccccc6o5)c4C[C@H]3C[C@@H]12 [drawing 3311] |  |  |  |  | MIC (S. aureus RN450; [5]): < 4 µg/mL; MIC (E. coli mL308 225; [6]): < 4 µg/mL
CN(C)[C@@H]1C(O)=C(C(N)=O)C(=O)[C@@]2(O)C(O)=C3C(=O)c4c(O)ccc(-c5ccccc5)c4C[C@H]3C[C@@H]12 |  |  | < 4 | < 4 | 
CN(C)[C@@H]1C(O)=C(C(N)=O)C(=O)[C@@]2(O)C(O)=C3C(=O)c4c(O)c(CNC(=O)C5CC5)cc(-c5ccc(C(C)(C)C)cc5)c4C[C@H]3C[C@@H]12 |  |  | < 4 | < 4 | 
Cc1noc(C)c1S(=O)(=O)Nc1ccc2c(c1O)C(=O)C1=C(O)[C@]3(O)C(=O)C(C(N)=O)=C(O)[C@@H](N(C)C)[C@@H]3C[C@@H]1C2 [IP] | < 4 | > 4 |  |  | 
CN(C)c1cc(CNCc2ccc(C(=O)O)cc2)c(O)c2c1C[C@H]1C[C@H]3[C@H](N(C)C)C(O)=C(C(N)=O)C(=O)[C@@]3(O)C(O)=C1C2=O |  |  | > 4 | > 4 | 
CN(C)c1cc(CNC(=O)CC(F)(F)F)c(O)c2c1C[C@H]1C[C@H]3[C@H](N(C)C)C(O)=C(C(N)=O)C(=O)[C@@]3(O)C(O)=C1C2=O |  |  | < 4 | < 4 | 
CN(C)CCN(Cc1ccccc1)Cc1ccc(-c2cc(N(C)C)c3c(c2O)C(=O)C2=C(O)[C@]4(O)C(=O)C(C(N)=O)=C(O)[C@@H](N(C)C)[C@@H]4C[C@@H]2C3)o1 |  |  | > 4 | > 4 | 
CN(C)[C@@H]1C(O)=C(C(N)=O)C(=O)[C@@]2(O)C(O)=C3C(=O)c4c(O)ccc(-c5ccc(CNc6ccccc6)cc5)c4C[C@H]3C[C@@H]12 |  |  | < 4 | > 4 | 
CN(C)[C@@H]1C(O)=C(C(N)=O)C(=O)[C@@]2(O)C(O)=C3C(=O)c4c(O)c(N)cc(-c5ccoc5)c4C[C@H]3C[C@@H]12 [KT] | < 4 | < 4 |  |  | 
COc1ccc(Cl)cc1-c1ccc(O)c2c1C[C@H]1C[C@H]3[C@H](N(C)C)C(O)=C(C(N)=O)C(=O)[C@@]3(O)C(O)=C1C2=O |  |  |  |  | MIC (S. aureus RN450; [5]): < 4 µg/mL; MIC (E. coli mL308 225; [6]): < 4 µg/mL
CCN(CC)Cc1ccc(OC)c(-c2ccc(O)c3c2C[C@H]2C[C@H]4[C@@H](N(C)C)C(O)=C(C(N)=O)C(=O)[C@@]4(O)C(O)=C2C3=O)c1 [J] | < 4 | < 4 |  |  | 
CN(C)c1cc(NCc2ccc([N+](=O)[O-])o2)c(O)c2c1C[C@H]1C[C@H]3[C@H](N(C)C)C(O)=C(C(N)=O)C(=O)[C@@]3(O)C(O)=C1C2=O |  |  | < 4 | > 4 | 
CN(C)[C@@H]1C(O)=C(C(N)=O)C(=O)[C@@]2(O)C(O)=C3C(=O)c4c(O)ccc(CNCc5ccccc5)c4C[C@H]3C[C@@H]12 |  |  | < 4 | < 4 | 

Compound | MIC (S. aureus RN450; [1]) [µg/mL] | MIC (E. coli mL308 225; [2]) [µg/mL] | MIC (S. aureus RN450; [3]) [µg/mL] | MIC (E. coli mL308 225; [4]) [µg/mL] | further results
CCCCCC(=O)O[C@H]1[C@H]2C(=C(O)[C@]3(O)C(=O)C(C(N)=O)=C(O)[C@@H](N(C)C)[C@H]13)C(=O)c1c(O)cccc1[C@@H]2C [L] | < 4 | > 4 |  |  | 
C[C@H]1c2ccc(CN3CCC4(CC3)OCCO4)c(O)c2C(=O)C2=C(O)[C@]3(O)C(=O)C(C(N)=O)=C(O)[C@@H](N(C)C)[C@@H]3[C@@H](O)[C@@H]21 |  |  | < 4 | < 4 | 
COc1ccc(C#Cc2cc(C#Cc3ccc(OC)cc3)c3c(c2O)C(=O)C2=C(O)[C@]4(O)C(=O)C(C(N)=O)=C(O)[C@@H](N(C)C)[C@@H]4C[C@@H]2C3)cc1 [BS] | > 4 | > 4 |  |  | 
CC(C)CN(Cc1ccc(O)c2c1C[C@H]1C[C@H]3[C@H](N(C)C)C(O)=C(C(N)=O)C(=O)[C@@]3(O)C(O)=C1C2=O)CC(C)C |  |  | < 4 | < 4 | 
CN(C)c1cc(NC(=O)Oc2ccc(O)cc2)c(O)c2c1C[C@H]1C[C@H]3[C@H](N(C)C)C(O)=C(C(N)=O)C(=O)[C@@]3(O)C(O)=C1C2=O |  |  |  |  | MIC (S. aureus RN450; read-out: Antibiotic Activity Gram + (MIC)): > 4 µg/mL; MIC (E. coli mL308 225; read-out: Antibiotic Activity Gram − (MIC)): > 4 µg/mL
CCCC/C(Cl)=C/c1ccc(O)c2c1C[C@H]1C[C@H]3[C@H](N(C)C)C(O)=C(C(N)=O)C(=O)[C@@]3(O)C(O)=C1C2=O |  |  | < 4 | < 4 | 
COc1ccc(CN2CCCC2)cc1-c1ccc2c(c1O)C(=O)C1=C(O)[C@]3(O)C(=O)C(C(N)=O)=C(O)[C@@H](N(C)C)[C@@H]3[C@@H](O)[C@@H]1[C@H]2C [HC] | > 4 | > 4 |  |  | 
C[C@H]1c2ccc(C(C)(C)C)c(O)c2C(=O)C2=C(O)[C@]3(O)C(=O)C(C(N)=O)=C(O)[C@@H](N(C)C)[C@@H]3[C@@H](O)[C@@H]21 [O] | < 4 | > 4 |  |  | 
CCc1cc(C(C)=O)c(O)c2c1C[C@H]1C[C@H]3[C@H](N(C)C)C(O)=C(C(N)=O)C(=O)[C@@]3(O)C(O)=C1C2=O [IY] | < 4 | > 4 |  |  | 
C[C@H]1c2ccc(-c3ccc(C=O)cc3)c(O)c2C(=O)C2=C(O)[C@]3(O)C(=O)C(C(N)=O)=C(O)[C@@H](N(C)C)[C@@H]3[C@@H](O)[C@@H]21 |  |  | < 4 | < 4 | 
CC(C)CN(C=O)Cc1cc(N(C)C)c2c(c1O)C(=O)C1=C(O)[C@]3(O)C(=O)C(C(N)=O)=C(O)[C@@H](N(C)C)[C@@H]3C[C@@H]1C2 |  |  | > 4 | > 4 | 
CN(C)[C@@H]1C(O)=C(C(N)=O)C(=O)[C@@]2(O)C(O)=C3C(=O)c4c(O)ccc(-c5ccc(C(F)(F)F)cc5)c4C[C@H]3C[C@@H]12 |  |  |  |  | MIC (S. aureus RN450; [5]): < 4 µg/mL; MIC (E. coli mL308 225; [6]): < 4 µg/mL
CN(C)[C@@H]1C(O)=C(C(N)=O)C(=O)[C@@]2(O)C(O)=C3C(=O)c4c(O)ccc(Br)c4C[C@H]3C[C@@H]12 |  |  |  |  | MIC (S. aureus RN450; [5]): < 4 µg/mL; MIC (E. coli mL308 225; [6]): < 4 µg/mL
C[C@H]1c2ccc(N3CCOCC3)c(O)c2C(=O)C2=C(O)[C@]3(O)C(=O)C(C(N)=O)=C(O)[C@@H](N(C)C)[C@@H]3[C@@H](O)[C@@H]21 |  |  | > 4 | > 4 | 
CN(C)c1cc(-c2ccc(CN3CCN(c4ccccc4F)CC3)o2)c(O)c2c1C[C@H]1C[C@H]3[C@H](N(C)C)C(O)=C(C(N)=O)C(=O)[C@@]3(O)C(O)=C1C2=O |  |  | > 4 | > 4 | 
CN(C)c1cc(CNC(N)=O)c(O)c2c1C[C@H]1C[C@H]3[C@H](N(C)C)C(O)=C(C(N)=O)C(=O)[C@@]3(O)C(O)=C1C2=O |  |  | > 4 | > 4 | 
CCc1cc(N)c(O)c2c1C[C@H]1C[C@H]3[C@H](N(C)C)C(O)=C(C(N)=O)C(=O)[C@@]3(O)C(O)=C1C2=O |  |  | < 4 | < 4 | 
CN(C)[C@@H]1C(O)=C(C(N)=O)C(=O)[C@@]2(O)C(O)=C3C(=O)c4c(O)ccc(CNCC(C)(C)C)c4C[C@H]3C[C@@H]12 |  |  | < 4 | < 4 | 
CN(C)c1cc(CN2CCC(F)CC2)c(O)c2c1C[C@H]1C[C@H]3[C@H](N(C)C)C(O)=C(C(N)=O)C(=O)[C@@]3(O)C(O)=C1C2=O |  |  | < 4 | < 4 | 
CN(C)[C@@H]1C(O)=C(C(N)=O)C(=O)[C@@]2(O)C(O)=C3C(=O)c4c(O)c(CS(C)(=O)=O)cc(-c5ccccn5)c4C[C@H]3C[C@@H]12 |  |  | < 4 | > 4 | 

— patent publication US20150141381A1, “TETRACYCLINE COMPOUNDS HAVING TARGET THERAPEUTIC ACTIVITIES” (Paratek Pharmaceuticals, Inc., priority 2001, published 2015)
